1 compound from ChEMBL document CHEMBL1149636 can be followed below.

This experiment addresses Carbonic anhydrase 4 (Homo sapiens) (UniProt P22748).

Sequence of Carbonic anhydrase 4 (Homo sapiens) (P22748 whole entry): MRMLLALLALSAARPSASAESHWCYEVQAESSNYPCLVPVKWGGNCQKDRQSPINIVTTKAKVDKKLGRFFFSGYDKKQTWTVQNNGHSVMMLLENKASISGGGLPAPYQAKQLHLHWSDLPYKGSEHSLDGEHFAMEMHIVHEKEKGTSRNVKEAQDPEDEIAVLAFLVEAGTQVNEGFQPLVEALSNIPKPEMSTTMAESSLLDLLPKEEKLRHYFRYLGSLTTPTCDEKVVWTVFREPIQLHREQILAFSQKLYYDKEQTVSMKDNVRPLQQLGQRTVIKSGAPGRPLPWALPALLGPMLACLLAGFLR
Description: Inhibition of human recombinant full length CA4 by stopped-flow technique

For `CCNC1CN(CCCOC)S(=O)(=O)c2sc(S(N)(=O)=O)cc21` (single isomer, unassigned), the Kinact came to 3.95 µM.
